From patent EP4559908A1, “HETEROARYL DERIVATIVE COMPOUND AND USE THEREOF” (S2CBio Inc., priority 2022, dated 2024) come the findings set out here.

This assay deals with T1, human ANO6 (variant 5) (Homo sapiens, UniProt Q4KMQ2).
T1 construct: expressed in transfected cells; host or cells: Fischer rat thyroid (FRT) cells
T1 sequence (Q4KMQ2 1-931 isoform Q4KMQ2-2): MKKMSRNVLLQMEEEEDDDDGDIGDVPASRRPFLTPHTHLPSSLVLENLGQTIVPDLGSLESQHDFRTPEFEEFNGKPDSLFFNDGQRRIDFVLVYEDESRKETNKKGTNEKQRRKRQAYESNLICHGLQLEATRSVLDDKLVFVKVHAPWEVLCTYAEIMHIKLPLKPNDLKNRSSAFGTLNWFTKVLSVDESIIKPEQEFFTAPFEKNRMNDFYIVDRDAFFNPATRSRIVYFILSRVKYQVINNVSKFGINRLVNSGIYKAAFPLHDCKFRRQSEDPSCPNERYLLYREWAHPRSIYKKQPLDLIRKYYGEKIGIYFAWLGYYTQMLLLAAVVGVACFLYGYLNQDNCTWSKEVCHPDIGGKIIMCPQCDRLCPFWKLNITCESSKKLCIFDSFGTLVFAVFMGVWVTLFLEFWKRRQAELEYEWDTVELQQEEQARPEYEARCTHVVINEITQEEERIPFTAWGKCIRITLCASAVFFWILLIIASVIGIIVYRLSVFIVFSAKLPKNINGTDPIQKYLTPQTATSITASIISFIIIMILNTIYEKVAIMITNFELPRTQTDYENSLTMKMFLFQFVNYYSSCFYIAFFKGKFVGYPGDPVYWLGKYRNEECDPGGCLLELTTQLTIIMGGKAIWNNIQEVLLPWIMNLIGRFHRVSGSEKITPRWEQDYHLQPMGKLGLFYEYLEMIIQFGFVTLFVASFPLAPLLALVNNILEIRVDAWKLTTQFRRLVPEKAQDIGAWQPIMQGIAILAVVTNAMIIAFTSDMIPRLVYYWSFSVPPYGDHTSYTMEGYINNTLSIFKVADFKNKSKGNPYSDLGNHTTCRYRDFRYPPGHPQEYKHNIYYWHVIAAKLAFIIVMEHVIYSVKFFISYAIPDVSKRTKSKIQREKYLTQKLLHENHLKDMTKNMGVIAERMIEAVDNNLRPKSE
In words: Lact C2 assay (measuring phosphatidylserine externalization scramblase function). The settings on record: FRT, FRT cells expressing human ANO6 (variant 5), ionomycin 10 µM, Lact-C2-GFP fluorescence, average of three tests; for inhibition at 0.05 µM: compound 50 nM, read-out: % Inhibition 50 nM; for inhibition at 1 µM: compound 1 µM, read-out: % Inhibition 1 µM. Format: cell-based. A digest of the protocol:
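Cells were pretreated 10 min with compound (50 nM, 100 nM, 1 µM; 1% DMSO), then given 10 µM ionomycin for 10 min. Surface phosphatidylserine was stained with 500 nM Lact-C2-GFP (10 min, 37 °C), fixed and imaged. Inhibition was scaled between untreated (100%) and ionomycin-alone (0%) wells.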

Molecules are shown by their SMILES.

As a reminder, the inhibition is the relative decrease from the control value, in per cent. In the case of `FC(F)(F)c1cc2[nH]c(-c3cccc(Nc4ccc(-c5ccncn5)cn4)c3)nc2cn1` [Example 89, 5-pyrimidin-4-yl-N-[3-[6-(trifluoromethyl)-1H-imidazo[4,5-c]pyridin-2-yl]phenyl]pyridin-2-amine], the inhibition at 0.05 µM is 30 to 60% and the inhibition at 1 µM is greater than 60%.

In the case of `Fc1ccc2nc(-c3cccc(Nc4ccc(-c5ccccn5)cc4)c3)[nH]c2c1` [Example 92, 3-(6-fluoro-1H-benzo[d]imidazol-2-yl)-N-[4-(2-pyridyl)phenyl]aniline], the inhibition at 0.05 µM was greater than 60% and the inhibition at 1 µM was greater than 60%.

Consider `Cc1noc(-c2ccc3nc(-c4cccc(Nc5ccc(-c6cccnn6)cc5)c4)[nH]c3c2)n1` [Example 93, 3-(6-(3-methyl-1,2,4-oxadiazol-5-yl)-1H-benzo[d]imidazol-2-yl)-N-(4-(pyridazin-3-yl)phenyl)aniline], for which the inhibition at 0.05 µM fell in the range of 30 to 60% and the inhibition at 1 µM is greater than 60%.

For the compound `c1cc(Nc2ccc(-c3ccnnc3)cc2)cc(-c2nc3ccccc3[nH]2)c1` [Example 94, 3-(1H-benzo[d]imidazol-2-yl)-N-(4-pyridazin-4-ylphenyl)aniline], the inhibition at 1 µM is greater than 60%.

As to `Fc1cc2nc(-c3cccc(Nc4ccc(-c5ccncn5)cc4)c3)[nH]c2cc1F` [Example 95, 3-(5,6-difluoro-1H-benzo[d]imidazol-2-yl)-N-(4-pyrimidin-4-ylphenyl)aniline], the inhibition at 0.05 µM is greater than 60% and the inhibition at 1 µM is greater than 60%.

Turning to `Fc1ccc2nc(-c3cccc(Nc4ccc(-c5ccncn5)cc4)c3)[nH]c2c1` [Example 96, 3-(6-fluoro-1H-benzo[d]imidazol-2-yl)-N-(4-pyrimidin-4-ylphenyl)aniline], the inhibition at 0.05 µM is greater than 60% and the inhibition at 1 µM was greater than 60%.

For `c1cc(Nc2ccc(C3CCCCC3)cc2)cc(-c2nc3ccccc3[nH]2)c1` [Example 97, 3-(1H-benzo[d]imidazol-2-yl)-N-(4-cyclohexylphenyl)aniline], the inhibition at 1 µM is greater than 60%.

With `FC(F)(F)c1ccc2nc(-c3cccc(Nc4ccc(-c5ccccn5)cc4)c3)[nH]c2c1` [Example 98, N-[4-(2-pyridyl)phenyl]-3-[6-(trifluoromethyl)-1H-benzo[d]imidazol-2-yl]aniline], the inhibition at 0.05 µM was greater than 60% and the inhibition at 1 µM was greater than 60%.

Take `Fc1cc2nc(-c3cccc(Nc4ncc(-c5cccnn5)cn4)c3)[nH]c2cc1F` [Example 99, N-[3-(5,6-difluoro-1H-benzo[d]imidazol-2-yl)phenyl]-5-pyridazin-3-yl-pyrimidin-2-amine]: the inhibition at 0.05 µM is 30 to 60% and the inhibition at 1 µM was greater than 60%.

Consider `FC(F)(F)c1ccc2nc(-c3cccc(Nc4ccc(-c5ncccn5)cn4)c3)[nH]c2c1` [Example 100, 5-pyrimidin-2-yl-N-[3-[6-(trifluoromethyl)-1H-benzo[d]imidazol-2-yl]phenyl]pyridin-2-amine], for which the inhibition at 0.05 µM was greater than 60% and the inhibition at 1 µM is greater than 60%.

For the compound `Cc1cccc2nc(-c3cccc(Nc4ccc(-c5cccnn5)cc4)c3)[nH]c12` [Example 101, 3-(7-methyl-1H-benzo[d]imidazol-2-yl)-N-(4-pyridazin-3-ylphenyl)aniline], the inhibition at 0.05 µM is greater than 60% and the inhibition at 1 µM is greater than 60%.

Take `Fc1cc2[nH]c(-c3cccc(Nc4ccc(-c5cccnn5)cc4)c3)nc2cc1Cl` [Example 102, 3-(5-chloro-6-fluoro-1H-benzo[d]imidazol-2-yl)-N-(4-pyridazin-3-ylphenyl)aniline]: the inhibition at 0.05 µM is greater than 60% and the inhibition at 1 µM is greater than 60%.

For `FC(F)(F)c1cc2[nH]c(-c3cccc(Nc4ncc(-c5cccnn5)cn4)c3)nc2cn1` [Example 103, 5-pyridazin-3-yl-N-[3-[6-(trifluoromethyl)-1H-imidazo[4,5-c]pyridin-2-yl]phenyl]pyrimidin-2-amine], the inhibition at 1 µM is greater than 60%.

Consider `Fc1cc2[nH]c(-c3cccc(Nc4ccc(-c5cccnn5)cc4)c3)nc2cc1C(F)(F)F` [Example 104, 3-[6-fluoro-5-(trifluoromethyl)-1H-benzo[d]imidazol-2-yl]-N-(4-pyridazin-3-ylphenyl)aniline], for which the inhibition at 0.05 µM is greater than 60% and the inhibition at 1 µM is greater than 60%.

As for `Cc1ccc2nc(-c3cccc(Nc4ccc(-c5cccnn5)cc4)c3)[nH]c2c1` [Example 105, 3-(6-methyl-1H-benzo[d]imidazol-2-yl)-N-(4-pyridazin-3-ylphenyl)aniline], the inhibition at 0.05 µM was greater than 60% and the inhibition at 1 µM is greater than 60%.

With `CC(C)(C)c1ccc2nc(-c3cccc(Nc4ccc(-c5cccnn5)cc4)c3)[nH]c2c1` [Example 107, 3-(6-tert-butyl-1H-benzo[d]imidazol-2-yl)-N-(4-pyridazin-3-ylphenyl)aniline], the inhibition at 0.05 µM lay within 30 to 60% and the inhibition at 1 µM is greater than 60%.

On to `COc1ccc2nc(-c3cccc(Nc4ncc(-c5cccnn5)cn4)c3)[nH]c2c1` [Example 108, N-[3-(6-methoxy-1H-benzo[d]imidazol-2-yl)phenyl]-5-pyridazin-3-yl-pyrimidin-2-amine], for which the inhibition at 1 µM was in the range of 30 to 60%.

On to `FC(F)(F)Oc1ccc2nc(-c3cccc(Nc4ccc(-c5ccncn5)cc4)c3)[nH]c2c1` [Example 109, N-(4-pyrimidin-4-ylphenyl)-3-[6-(trifluoromethoxy)-1H-benzo[d]imidazol-2-yl]aniline], for which the inhibition at 0.05 µM was greater than 60% and the inhibition at 1 µM was greater than 60%.

With `CC(C)OC(=O)c1ccc2nc(-c3cccc(Nc4ccc(-c5cccnn5)cc4)c3)[nH]c2c1` [Example 111, isopropyl 2-(3-((4-(pyridazin-3-yl)phenyl)amino)phenyl)-1H-benzo[d]imidazole-6-carboxylate], the inhibition at 0.05 µM fell in the range of 30 to 60% and the inhibition at 1 µM is greater than 60%.

Regarding `Cc1cc2nc(-c3cccc(Nc4ccc(-c5cccnn5)cc4)c3)[nH]c2cc1F` [Example 114, 3-(6-fluoro-5-methyl-1H-benzo[d]imidazol-2-yl)-N-(4-pyridazin-3-ylphenyl)aniline], the inhibition at 0.05 µM is 30 to 60% and the inhibition at 1 µM was greater than 60%.

As to `Clc1cccc2nc(-c3cccc(Nc4ccc(-c5cccnn5)cc4)c3)[nH]c12` [Example 115, 3-(7-chloro-1H-benzo[d]imidazol-2-yl)-N-(4-pyridazin-3-ylphenyl)aniline], the inhibition at 1 µM is greater than 60%.

Take `Clc1cc2[nH]c(-c3cccc(Nc4ccc(-c5ccncn5)cc4)c3)nc2cn1` [Example 117, 3-(6-chloro-1H-imidazo[4,5-c]pyridin-2-yl)-N-(4-pyrimidin-4-ylphenyl)aniline]: the inhibition at 1 µM is greater than 60%.

Regarding `FC(F)(F)Oc1ccc2nc(-c3cccc(Nc4ncc(-c5ccccn5)cn4)c3)[nH]c2c1` [Example 118, 5-(2-pyridyl)-N-[3-[6-(trifluoromethoxy)-1H-benzo[d]imidazol-2-yl]phenyl]pyrimidin-2-amine], the inhibition at 0.05 µM is greater than 60% and the inhibition at 1 µM is greater than 60%.

Consider `Clc1cc2[nH]c(-c3cccc(Nc4ccc(-c5ccccn5)cc4)c3)nc2cn1` [Example 119, 3-(6-chloro-1H-imidazo[4,5-c]pyridin-2-yl)-N-[4-(2-pyridyl)phenyl]aniline], for which the inhibition at 0.05 µM was 30 to 60% and the inhibition at 1 µM is greater than 60%.

As to `FC(F)(F)Oc1cc2nc(-c3cccc(Nc4ncc(-c5cccnn5)cn4)c3)[nH]c2cc1Cl` [Example 120, N-[3-[6-chloro-5-(trifluoromethoxy)-1H-benzo[d]imidazol-2-yl]phenyl]-5-pyridazin-3-yl-pyrimidin-2-amine], the inhibition at 0.05 µM was greater than 60% and the inhibition at 1 µM is greater than 60%.

In the case of `c1cc(Nc2ncc(-c3ccoc3)cn2)cc(-c2nc3ccccc3[nH]2)c1` [Example 163, N-[3-(1H-benzo[d]imidazol-2-yl)phenyl]-5-(3-furyl)pyrimidin-2-amine], the inhibition at 1 µM was greater than 60%.

With `c1cc(Nc2ncc(-c3ccsc3)cn2)cc(-c2nc3ccccc3[nH]2)c1` [Example 164, N-[3-(1H-benzo[d]imidazol-2-yl)phenyl]-5-(3-thienyl)pyrimidin-2-amine], the inhibition at 0.05 µM lay in the range of 30 to 60% and the inhibition at 1 µM is greater than 60%.

`c1cc(Nc2ccc(-c3ncco3)cc2)cc(-c2nc3ccccc3[nH]2)c1` [Example 165, 3-(1H-benzo[d]imidazol-2-yl)-N-(4-oxazol-2-ylphenyl)aniline]: the inhibition at 0.05 µM lay within 30 to 60% and the inhibition at 1 µM was greater than 60%.
